From ChEMBL document CHEMBL1201862, “PubChem BioAssay data set” (2004)
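Where inhibition never reached the appropriate level, the endpoint shown equals the highest concentration tested. Otherwise, values were interpolated linearly from a five-concentration, 48-hour dose response in 96-well plates. GI50 marks 50% less growth.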 The source made the active and inactive calls. Cut-off read from the data, not from the text of the source: active = GI50 up to about 1.1 µM and inactive = higher.

Tests used:
Assay in all cases: growth of human tumour cells (NCI), 48 h
RXF 393 = system: RXF 393
SK-OV-3 = system: SK-OV-3
UACC-257 = system: UACC-257
M14 = system: M14
IGROV-1 = system: IGROV-1
MOLT-4 = system: MOLT-4
T47D = system: T47D
NCI-H522 = system: NCI-H522
PC-3 = system: PC-3
SF-268 = system: SF-268
TK-10 = system: TK-10
NCI/ADR-RES = system: NCI/ADR-RES
U-251 = system: U-251
K562 = system: K562
MDA-MB-231 = system: MDA-MB-231
786-0 = system: 786-0
LOX IMVI = system: LOX IMVI
SK-MEL-2 = system: SK-MEL-2
HCC 2998 = system: HCC 2998

| SMILES | GI50 (RXF 393) | GI50 (SK-OV-3) | GI50 (UACC-257) | GI50 (M14) | GI50 (IGROV-1) | GI50 (MOLT-4) | GI50 (T47D) | GI50 (NCI-H522) | GI50 (PC-3) | GI50 (SF-268) | GI50 (TK-10) | GI50 (NCI/ADR-RES) | GI50 (U-251) | GI50 (K562) | GI50 (MDA-MB-231) | GI50 (786-0) | GI50 (LOX IMVI) | GI50 (SK-MEL-2) | GI50 (HCC 2998) |
| --- | --- | --- | --- | --- | --- | --- | --- | --- | --- | --- | --- | --- | --- | --- | --- | --- | --- | --- | --- |
| CCN(CC)CCNc1ccc([N+](=O)[O-])c2nc3ccc(OC)cc3c(N)c12 | 1.16 µM (inactive) | 1.89 µM (inactive) | 1.77 µM (inactive) | 1.37 µM (inactive) | 0.435 µM (active) | 0.301 µM (active) | 1.26 µM (inactive) | 0.309 µM (active) | 1.36 µM (inactive) | 1.65 µM (inactive) | 1.57 µM (inactive) | 1.24 µM (inactive) | 1.62 µM (inactive) | 0.238 µM (active) | 1.16 µM (inactive) | 0.614 µM (active) | 0.172 µM (active) | 1.05 µM (active) | – |
| COc1ccc(C[C@H]2COC(=O)[C@@H]2Cc2ccc(Br)cc2)cc1OC | 20 µM (inactive) | 22 µM (inactive) | 11.5 µM (inactive) | 33.3 µM (inactive) | 16.1 µM (inactive) | 13 µM (inactive) | 6.08 µM (inactive) | 13.7 µM (inactive) | 15.6 µM (inactive) | 20.1 µM (inactive) | 28.6 µM (inactive) | 10.7 µM (inactive) | 35 µM (inactive) | 11.7 µM (inactive) | 24 µM (inactive) | 38 µM (inactive) | 11.2 µM (inactive) | 19.9 µM (inactive) | 28.3 µM (inactive) |
| Nc1ncn(C2OC(COP(=O)(O)O)C(O)C2O)c(=O)n1 (centres undefined) | > 100 µM (inactive) | > 100 µM (inactive) | > 100 µM (inactive) | > 100 µM (inactive) | > 100 µM (inactive) | 2.39 µM (inactive) | > 100 µM (inactive) | > 87.9 µM (inactive) | > 100 µM (inactive) | > 92 µM (inactive) | > 100 µM (inactive) | > 100 µM (inactive) | > 100 µM (inactive) | > 90.8 µM (inactive) | > 100 µM (inactive) | > 86.3 µM (inactive) | > 100 µM (inactive) | > 100 µM (inactive) | > 100 µM (inactive) |
| Oc1cc(O)c2c(c1)O[C@H](c1cc(O)c(O)c(O)c1)[C@@H](O)C2 [GALLOCATECHIN] | 17 µM (inactive) | 28.1 µM (inactive) | > 100 µM (inactive) | 25.1 µM (inactive) | 18.8 µM (inactive) | > 10 µM (inactive) | 28.9 µM (inactive) | 17.5 µM (inactive) | 30.7 µM (inactive) | 23.6 µM (inactive) | – | 36.2 µM (inactive) | 19.7 µM (inactive) | 18 µM (inactive) | 18.7 µM (inactive) | 18 µM (inactive) | 20.5 µM (inactive) | 24.6 µM (inactive) | > 10 µM (inactive) |
| C1CNOCCCONCCCNOCCCONC1 | 20.2 µM (inactive) | 37.1 µM (inactive) | 41.7 µM (inactive) | 72.1 µM (inactive) | 56.1 µM (inactive) | > 100 µM (inactive) | 11.3 µM (inactive) | 67.6 µM (inactive) | 27.6 µM (inactive) | 85.9 µM (inactive) | 31 µM (inactive) | 95.3 µM (inactive) | 31.7 µM (inactive) | > 100 µM (inactive) | 26.8 µM (inactive) | > 100 µM (inactive) | > 100 µM (inactive) | 25.1 µM (inactive) | – |
| CN(C)c1ccc(/C=C2\N=C(NNc3ccccc3)NC2=O)cc1 | 18.7 µM (inactive) | 27.5 µM (inactive) | 15.6 µM (inactive) | 37.3 µM (inactive) | 23.4 µM (inactive) | < 0.01 µM (active) | 11.7 µM (inactive) | 18.8 µM (inactive) | 13.2 µM (inactive) | 27.3 µM (inactive) | 20.8 µM (inactive) | 19.8 µM (inactive) | 14.3 µM (inactive) | – | 13.7 µM (inactive) | 17.9 µM (inactive) | 27.8 µM (inactive) | 18.7 µM (inactive) | 14 µM (inactive) |
| COc1ccccc1N1C(=O)/C(=C\c2cccc(Oc3ccccc3)c2)S(=O)(=O)C1c1ccccc1 (centres undefined) | > 100 µM (inactive) | > 100 µM (inactive) | 21.7 µM (inactive) | 50 µM (inactive) | – | 4.92 µM (inactive) | 22.3 µM (inactive) | 22.5 µM (inactive) | 41.4 µM (inactive) | – | 58.7 µM (inactive) | 2.92 µM (inactive) | 53.6 µM (inactive) | 17.3 µM (inactive) | > 100 µM (inactive) | 49.4 µM (inactive) | 40.1 µM (inactive) | 21.4 µM (inactive) | > 100 µM (inactive) |
| O=C(O)CS(=O)(=O)C(c1ccccc1)c1ccccc1 | > 100 µM (inactive) | > 100 µM (inactive) | > 100 µM (inactive) | > 100 µM (inactive) | > 100 µM (inactive) | > 100 µM (inactive) | > 100 µM (inactive) | > 100 µM (inactive) | > 100 µM (inactive) | > 100 µM (inactive) | > 100 µM (inactive) | > 100 µM (inactive) | > 100 µM (inactive) | > 100 µM (inactive) | > 100 µM (inactive) | > 100 µM (inactive) | > 100 µM (inactive) | > 100 µM (inactive) | – |
| NC(CSc1nc2ccccn2c1[N+](=O)[O-])C(=O)O (centres undefined) | > 100 µM (inactive) | > 100 µM (inactive) | > 100 µM (inactive) | > 100 µM (inactive) | > 100 µM (inactive) | – | > 100 µM (inactive) | > 100 µM (inactive) | > 100 µM (inactive) | > 100 µM (inactive) | > 100 µM (inactive) | > 100 µM (inactive) | > 100 µM (inactive) | > 100 µM (inactive) | > 100 µM (inactive) | > 100 µM (inactive) | – | > 100 µM (inactive) | > 100 µM (inactive) |
| C=C[C@H]1CN2CC[C@H]1C[C@@H]2[C@@H](O)c1ccnc2ccccc12 [CINCHONINE] | > 100 µM (inactive) | > 100 µM (inactive) | > 100 µM (inactive) | 38.1 µM (inactive) | 19.6 µM (inactive) | > 100 µM (inactive) | > 100 µM (inactive) | > 100 µM (inactive) | > 100 µM (inactive) | > 100 µM (inactive) | > 100 µM (inactive) | > 100 µM (inactive) | > 100 µM (inactive) | 55.2 µM (inactive) | > 100 µM (inactive) | > 100 µM (inactive) | 5.4 µM (inactive) | > 100 µM (inactive) | – |
| OC1OC(c2ccc[nH]2)C(F)(F)C(F)(F)C1(F)F (centres undefined) | > 100 µM (inactive) | > 100 µM (inactive) | > 100 µM (inactive) | > 100 µM (inactive) | > 100 µM (inactive) | > 100 µM (inactive) | > 100 µM (inactive) | > 100 µM (inactive) | > 100 µM (inactive) | > 100 µM (inactive) | > 100 µM (inactive) | > 100 µM (inactive) | > 100 µM (inactive) | – | > 100 µM (inactive) | > 100 µM (inactive) | > 100 µM (inactive) | > 100 µM (inactive) | – |
| C/C=C(/C)C(=O)O[C@H](C[C@@H](C)[C@H]1CC(c2ccoc2)OC1=O)[C@@]1(C)C(=O)CCC2O[C@]21C (some centres undefined) | > 100 µM (inactive) | > 100 µM (inactive) | > 100 µM (inactive) | > 100 µM (inactive) | > 100 µM (inactive) | > 100 µM (inactive) | > 100 µM (inactive) | > 100 µM (inactive) | > 100 µM (inactive) | – | > 100 µM (inactive) | > 100 µM (inactive) | > 100 µM (inactive) | > 100 µM (inactive) | > 100 µM (inactive) | > 100 µM (inactive) | > 100 µM (inactive) | > 100 µM (inactive) | > 100 µM (inactive) |
| Cc1ccc(OCC2OC(n3cnc4c(Cl)nc(Nc5cc(Cl)cc(Cl)c5)nc43)CC2Oc2ccc(C)cc2)cc1 (centres undefined) | > 100 µM (inactive) | > 100 µM (inactive) | > 100 µM (inactive) | > 100 µM (inactive) | > 100 µM (inactive) | > 100 µM (inactive) | 48.9 µM (inactive) | > 100 µM (inactive) | > 100 µM (inactive) | > 100 µM (inactive) | – | > 100 µM (inactive) | > 100 µM (inactive) | > 100 µM (inactive) | > 100 µM (inactive) | > 100 µM (inactive) | > 100 µM (inactive) | > 100 µM (inactive) | > 100 µM (inactive) |
| CCOC(=O)c1sc2c(c1OC(=O)c1ccco1)c(=O)n(-c1ccccc1)c(=S)n2-c1ccccc1 | 22.1 µM (inactive) | > 100 µM (inactive) | 90.2 µM (inactive) | 28.2 µM (inactive) | 17.9 µM (inactive) | 17.2 µM (inactive) | 65.6 µM (inactive) | > 100 µM (inactive) | 21.4 µM (inactive) | 46.1 µM (inactive) | 39.1 µM (inactive) | 21.4 µM (inactive) | 35.5 µM (inactive) | 30.4 µM (inactive) | 28.1 µM (inactive) | 28.9 µM (inactive) | 25.6 µM (inactive) | – | 31.4 µM (inactive) |
| S=C(N/N=C\C(=N/NC(=S)N1CCCCC1)c1ccccc1)N1CCCCC1 | 1.85 µM (inactive) | 1.91 µM (inactive) | 2.14 µM (inactive) | 1.92 µM (inactive) | 1.76 µM (inactive) | – | 5.4 µM (inactive) | 1.62 µM (inactive) | 1.92 µM (inactive) | 1.99 µM (inactive) | 1.8 µM (inactive) | 2.31 µM (inactive) | 1.84 µM (inactive) | 5.68 µM (inactive) | 2.43 µM (inactive) | 1.85 µM (inactive) | 3.33 µM (inactive) | 2.25 µM (inactive) | 2.08 µM (inactive) |
